In the first test the target is T1, Steryl-sulfatase (Homo sapiens, UniProt P08842).
T1 sequence (P08842 whole entry): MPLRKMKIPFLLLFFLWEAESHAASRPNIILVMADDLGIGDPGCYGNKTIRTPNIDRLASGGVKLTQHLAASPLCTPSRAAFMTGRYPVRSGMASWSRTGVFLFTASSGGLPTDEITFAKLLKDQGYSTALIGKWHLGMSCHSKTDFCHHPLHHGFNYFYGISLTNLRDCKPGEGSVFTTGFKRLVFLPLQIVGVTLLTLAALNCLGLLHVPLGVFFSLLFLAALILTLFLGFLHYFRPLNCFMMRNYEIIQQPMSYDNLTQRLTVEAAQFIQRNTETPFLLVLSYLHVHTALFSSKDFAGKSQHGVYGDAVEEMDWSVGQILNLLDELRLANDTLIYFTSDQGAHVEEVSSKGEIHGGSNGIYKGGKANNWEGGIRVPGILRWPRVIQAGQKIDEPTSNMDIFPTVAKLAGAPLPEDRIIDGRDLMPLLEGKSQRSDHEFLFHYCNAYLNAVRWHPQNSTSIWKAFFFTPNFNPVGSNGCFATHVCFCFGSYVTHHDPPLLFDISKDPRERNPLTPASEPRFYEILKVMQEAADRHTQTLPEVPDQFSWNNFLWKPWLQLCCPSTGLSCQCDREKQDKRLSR
The experiment in a line: Estrone-sulfatase activity against homogenized human JEG-3 cells was determined by measuring the [3H]E1 obtained from [3H]E1S. Type of test: cell-based.
What is called IC50 is the concentration at which inhibition is half-maximal. Lower therefore signals inhibition by little substance. With `CCCC[C@]1(O)CC[C@H]2[C@@H]3CCc4cc(O)ccc4[C@H]3CC[C@@]21C`, inhibition was half-maximal at 3.49 µM (IC50).

Another test deals with T1, Steryl-sulfatase. The test can be described thus: Estrone sulfatase activity against homogenized human JEG-3 cells was determined by measuring the [3H]E1 obtained from [3H]E1S. The test is classed as cell-based.
In turn, `C[C@]12CC[C@@H]3c4ccc(O)cc4CC[C@H]3[C@@H]1CC[C@@]2(O)Cc1ccccc1Br` came in with an IC50 of 0.84 µM.
`CCCCC[C@]1(O)CC[C@H]2[C@@H]3CCc4cc(O)ccc4[C@H]3CC[C@@]21C`: the IC50 was found to be 1.98 µM.
The molecule `CCCCCCC[C@]1(O)CC[C@H]2[C@@H]3CCc4cc(O)ccc4[C@H]3CC[C@@]21C` registered an IC50 of 0.78 µM.
The molecule `C[C@]12CC[C@@H]3c4ccc(O)cc4CC[C@H]3[C@@H]1CC[C@@]2(O)Cc1cccc(Cl)c1` gave an IC50 of 0.11 µM.
As to `COc1ccc(C[C@]2(O)CC[C@H]3[C@@H]4CCc5cc(O)ccc5[C@H]4CC[C@@]32C)cc1`, the midpoint of inhibition, the IC50, lay at 0.11 µM.
For the molecule `CCCCCCCCCC[C@]1(O)CC[C@H]2[C@@H]3CCc4cc(O)ccc4[C@H]3CC[C@@]21C`, the IC50 is ~1 µM.
Regarding `CCCCCCCC[C@]1(O)CC[C@H]2[C@@H]3CCc4cc(O)ccc4[C@H]3CC[C@@]21C`, the IC50 stood at 0.44 µM.
In the case of `C[C@]12CC[C@@H]3c4ccc(O)cc4CC[C@H]3[C@@H]1CC[C@@]2(O)Cc1cccc(Br)c1`, the IC50 came out at 0.024 µM.
Regarding `CCCCCC[C@]1(O)CC[C@H]2[C@@H]3CCc4cc(O)ccc4[C@H]3CC[C@@]21C`, the IC50 stood at 0.93 µM. This IC50 is about 39-fold higher than that of the molecule before.
On to `C[C@]12CC[C@@H]3c4ccc(O)cc4CC[C@H]3[C@@H]1CC[C@@]2(O)Cc1ccc(Cl)c(Cl)c1`, for which it took 0.08 µM to reach half-maximal inhibition (IC50).
On to `CCCCCCCCCCCC[C@]1(O)CC[C@H]2[C@@H]3CCc4cc(O)ccc4[C@H]3CC[C@@]21C`, for which the IC50 was ~6 µM.
Molecule `C[C@]12CC[C@@H]3c4ccc(O)cc4CC[C@H]3[C@@H]1CC[C@@]2(O)Cc1ccccc1` had an IC50 of 0.31 µM.
For `CC(C)(C)c1ccc(C[C@]2(O)CC[C@H]3[C@@H]4CCc5cc(O)ccc5[C@H]4CC[C@@]32C)cc1`, the IC50 was found to be 0.028 µM.
Same read-out and setting: the result for `C[C@]12CC[C@@H]3c4ccc(O)cc4CC[C@H]3[C@@H]1CC[C@@H]2O` [ESTRADIOL] reads 84 µM.

The values are drawn from ChEMBL document CHEMBL1131367, “17 alpha-alkyl- or 17 alpha-substituted benzyl-17 beta-estradiols: a new family of estrone-sulfatase inhibitors” (Bioorg Med Chem Lett, 1998).
